Measured values from patent publication US20070254055A1, “Therapeutic Avenanthramide Compounds” (TRUSTEES OF TUFTS COLLEGE, priority 2003, published 2007).

Columns and labels:
[1] = tested on: human aortic smooth muscle cells (HSMC); test: FBS-induced [3H] thymidine incorporation in HSMC; assay type: cell-based
Source text: Synthetic Av-C was used in this experiment. […] The inhibitory effect of Avenanthramide was concentration-dependent.

[2] = tested on: A10 cells (rat embryonic aortic smooth muscle cell); test: Cell number counting, A10 cells; assay type: cell-based
Description: HSMC or A10 cells (rat embryonic aortic smooth muscle cell) were seeded into 6-well plate at a density of 0.5×10^4/well. Four hr later 120 μM of avenanthramide were added to each well. At different time points (2d, 3d and 4d) the cells were trypsinzied and the total cell number were counted using a hemocytometer. Trypan blue exclusion test was carried out to determine the cell viability.

NO production of HSMC = test: NO production, DAF-2 fluorescence assay, HSMC; assay type: cell-based, human
Source text: In addition to its vasodilating feature, NO has antiatherosclerotic properties, such as prevention of platelet aggregation, leukocyte adhesion, smooth muscle cell proliferation, and the expression of genes involved in atherogenesis. In this study, the human aortic smooth muscle cells (HSMC) and human aortic endothelia cells (HEC) were used to determine if avenanthramides can influence the NO production level. Synthetic Av-C was used in this experiment. The quantification of NO production was performed by the 4,5 diaminofluorescein (DAF-2) fluorescence assay. Briefly, cells were seeded into 24-well plate and let them grow to 90% confluent condition. The cells were pretreated with different concentrations of Avenanthramide for 24 h. The culture medium was then changed to PBS containing 100 μM L-arginine, 1 μM bradykinin and L-NAME. Then 0.1 μM of DAF-2 was added to each well. After another 2 h of incubation, 200 μL of supernatants were transferred to black microplates and the fluorescence was measured with a fluorescence microplate reader calibrated for excitation at 485 nm and emission at 538 nm.

VCAM-1 = test: HASMC expression of VCAM-1; assay type: cell-based, human
A10 SMC = test: Cell cycle distribution by flow cytometry, A10 cells; assay type: cell-based, rat; settings: 120 μM, 48 h
Description: At 50% confluence (exponentially growing phase), A10 cells were seeded into 100 mm culture dishes and were treated with different concentrations of Avn for 48 h. Cells were then harvested by trypsin/EDTA treatment, washed with PBS and fixed with 70% ethanol at 4° C. for 1 hr. Prior to analysis, cells were washed again with PBS and stained with 1.0 mL of propidium iodide (PI) solution containing 25 μg/mL PI and 10 μg/mL RNase in PBS at 4° C. for 30 min in the dark. Cell cycle distributions were then analyzed by flow cytometry using the fluorescence-activated cell sorting (FACS) analysis. To calculate percentage of cells in respective phases of the cell cycle the DNA content frequency histograms were deconvoluted. Based on the DNA content, the cell cycle can be distinguished from G1 to S and G2-M phase.

cyclin D1 = test: Cyclin D1 expression Western blot, FBS-stimulated A10 cells; assay type: cell-based, rat; settings: 10% FBS, 20 h, dose-dependent
Description: (§1) Protein from 5×10^4 cells was subjected to electrophoresis on 7.5-10% SDS-polyacrylamide gels and electro-transferred to nirocellulose membrane. Nonspecific binding was blocked by incubating with Tris-buffered saline (TBS) [137 mM NaCl, and 15 mM Tris-HCl (pH 7.6)] containing 5% non-fat milk (w/v) for 1 h at room temperature and then probed with primary antibody against p53, p21, p27, cyclin D1 and pRb overnight. After washing in TBS-Tween 20 buffer (0.075% v/v), the membranes were incubated with horseradish peroxidase-conjugated anti-IgG antibody. Proteins bound to the primary antibodies were detected with ECL detection reagents.
Cells were treated with 10% FBS in the presence and absence of substantially purified Avn-C as described above. 20 h after the addition of serum to quiescent A10 cells, the amount of cyclin D1 was measured by Western blotting using polyclonal anti-cyclin D1 antibody. β-Actin expression level was used as a loading control.

p27Kip1 = p27Kip1 expression Western blot, A10 cells; assay type: cell-based, rat; settings: 10% FBS, 20 h
Description: as §1
Cyclin-dependent kinase (cdk) inhibitors play important roles in cell cycle progression. P21cip1 is the main target of p53 medicated cell cycle inhibition. […] The effect of Avn on this CDK inhibitor p21cip1 protein expression was determined by Western blotting. A10 cells were synchronized by growning in FBS-free medium for 24 h. The cells were then stimulated with 10% FBS in the absence or presence of different concentrations of substantially purified Avn-C. After 20 h, total cell lysates were prepared and subjected to SDS-PAGE followed by Western blot analysis to detect p21cip and p27kip. β-Actin expression was used as loading control. […]

p53 = test: Half life of p53 protein, cycloheximide chase, A10 cells; assay type: cell-based, rat
Description: At 80% confluence, A10 cells seeded into 100 mm culture dishes and were treated with different concentrations of Av (0, 40, 80 and 120 μM) for 24 h. Following Avn treatment, the total cell extracts were harvested with 2× protein sample buffer [0.14 M Tris/HCl (pH 6.8), 22.4% glycerol, 6% SDS, 0.02% […], and 10% β-mercaptoethanol] by scraping the cells. The genomic DNA is sheared by passing through a 21-gauge syringe several times. The homogenized cell lysates were boiled for 5 min and centriftiged at 12,000 rpm for 5 min. Protein half life studies are performed as described before. Briefly, cells were treated with Avn for 4-6 h. […] Cells were harvested in 2× protein sample buffer at 0, 30, 60 and 120 min after cycloheximide addition. Protein samples were analyzed by Western blot.
P53 protein level is mainly regulated at a posttranslational level, usually via control of protein stability. To determine whether increased protein stability might play a role in the increased p53 levels induced by Avn treatment observed in this study, the change in half life of p53 protein in Avn-treated and nontreated cells was explored. […] Whole cell extract was prepared at different time points (0, 30 and 60 min.) and p53 protein levels were measured by Western blot. […]

Structure (SMILES): O=C(/C=C/c1ccc(O)c(O)c1)Nc1ccc(O)cc1C(=O)O [Avn-C, Avenanthramide C]
- inhibition of cell proliferation (serum-induced DNA synthesis) ([1]; 120 μM, 10% FBS, 24 h): more than 50%
- IC50 ([1]; [3H] thymidine incorporation and cell number counting, read-out: IC50, serum-induced HASMC proliferation): ~50 µM
- reduction in cell proliferation ([2]; 120 μM): 50%
- doubling time ([2]; A10, 120 μM): more than 48 hr
- increase of NO production (NO production of HSMC; 80 μM, HASMC): 2.1 fold
- increase in NO production compared with control (NO production of HSMC; 120 μM, 24 h, HSMC): 3.0 folds
- HASMC expression of VCAM-1 (VCAM-1): not affected
- population of cells in G0/G1-phase (A10 SMC; growing cells (control 49.7%)): 66.9%
- population of cells in S-phase (A10 SMC; growing cells (control about 40%)): 25.7%
- FBS-induced cyclin D expression (cyclin D1): attenuate
- p27Kip1 protein expression (p27Kip1): no significant effect
- p53 protein remaining after 1 h of cycloheximide treatment (p53; 80 uM for 6 h, then 15 μg/mL cycloheximide): More than half
- half-life of p53 (p53; A10 cells (untreated about 20 min)): more than 1 h
